Read-outs that look alike come from different tables or passages of the source.
Columns and labels:
[1] = 20 to 40 mg/kg alglucosidase alfa with 4 doses of 80 mg miglustat; 13 Pompe subjects; mean; cited from earlier work
[2] = Apparent plasma half-life in vivo
Gaa KO mice [3] = assay: Cellular dysfunction in Gaa KO mice after 2 administrations; format: in vivo, mouse; details: 20 mg/kg ERT every other week, miglustat 10 mg/kg
Protocol: These key muscle proteins require proper protein trafficking to the muscle cell membrane where they function. […] Alglucosidase alfa (Myozyme®) and ATB200 with and without 10 mg/kg miglustat were evaluated in Gaa KO mice at equivalent ERT dose (20 mg/kg) via an every other week dosing schedule. […] In FIGS. 32A-32D, * indicates statistically significant compared to Myozyme® alone.

CIMPR = CIMPR (Homo sapiens, UniProt P11717); assay: CIMPR affinity chromatography of rhGAA; format: binding; details: fraction of total enzyme by GAA activity
Chain of CIMPR (P11717 41-2491, species assumed): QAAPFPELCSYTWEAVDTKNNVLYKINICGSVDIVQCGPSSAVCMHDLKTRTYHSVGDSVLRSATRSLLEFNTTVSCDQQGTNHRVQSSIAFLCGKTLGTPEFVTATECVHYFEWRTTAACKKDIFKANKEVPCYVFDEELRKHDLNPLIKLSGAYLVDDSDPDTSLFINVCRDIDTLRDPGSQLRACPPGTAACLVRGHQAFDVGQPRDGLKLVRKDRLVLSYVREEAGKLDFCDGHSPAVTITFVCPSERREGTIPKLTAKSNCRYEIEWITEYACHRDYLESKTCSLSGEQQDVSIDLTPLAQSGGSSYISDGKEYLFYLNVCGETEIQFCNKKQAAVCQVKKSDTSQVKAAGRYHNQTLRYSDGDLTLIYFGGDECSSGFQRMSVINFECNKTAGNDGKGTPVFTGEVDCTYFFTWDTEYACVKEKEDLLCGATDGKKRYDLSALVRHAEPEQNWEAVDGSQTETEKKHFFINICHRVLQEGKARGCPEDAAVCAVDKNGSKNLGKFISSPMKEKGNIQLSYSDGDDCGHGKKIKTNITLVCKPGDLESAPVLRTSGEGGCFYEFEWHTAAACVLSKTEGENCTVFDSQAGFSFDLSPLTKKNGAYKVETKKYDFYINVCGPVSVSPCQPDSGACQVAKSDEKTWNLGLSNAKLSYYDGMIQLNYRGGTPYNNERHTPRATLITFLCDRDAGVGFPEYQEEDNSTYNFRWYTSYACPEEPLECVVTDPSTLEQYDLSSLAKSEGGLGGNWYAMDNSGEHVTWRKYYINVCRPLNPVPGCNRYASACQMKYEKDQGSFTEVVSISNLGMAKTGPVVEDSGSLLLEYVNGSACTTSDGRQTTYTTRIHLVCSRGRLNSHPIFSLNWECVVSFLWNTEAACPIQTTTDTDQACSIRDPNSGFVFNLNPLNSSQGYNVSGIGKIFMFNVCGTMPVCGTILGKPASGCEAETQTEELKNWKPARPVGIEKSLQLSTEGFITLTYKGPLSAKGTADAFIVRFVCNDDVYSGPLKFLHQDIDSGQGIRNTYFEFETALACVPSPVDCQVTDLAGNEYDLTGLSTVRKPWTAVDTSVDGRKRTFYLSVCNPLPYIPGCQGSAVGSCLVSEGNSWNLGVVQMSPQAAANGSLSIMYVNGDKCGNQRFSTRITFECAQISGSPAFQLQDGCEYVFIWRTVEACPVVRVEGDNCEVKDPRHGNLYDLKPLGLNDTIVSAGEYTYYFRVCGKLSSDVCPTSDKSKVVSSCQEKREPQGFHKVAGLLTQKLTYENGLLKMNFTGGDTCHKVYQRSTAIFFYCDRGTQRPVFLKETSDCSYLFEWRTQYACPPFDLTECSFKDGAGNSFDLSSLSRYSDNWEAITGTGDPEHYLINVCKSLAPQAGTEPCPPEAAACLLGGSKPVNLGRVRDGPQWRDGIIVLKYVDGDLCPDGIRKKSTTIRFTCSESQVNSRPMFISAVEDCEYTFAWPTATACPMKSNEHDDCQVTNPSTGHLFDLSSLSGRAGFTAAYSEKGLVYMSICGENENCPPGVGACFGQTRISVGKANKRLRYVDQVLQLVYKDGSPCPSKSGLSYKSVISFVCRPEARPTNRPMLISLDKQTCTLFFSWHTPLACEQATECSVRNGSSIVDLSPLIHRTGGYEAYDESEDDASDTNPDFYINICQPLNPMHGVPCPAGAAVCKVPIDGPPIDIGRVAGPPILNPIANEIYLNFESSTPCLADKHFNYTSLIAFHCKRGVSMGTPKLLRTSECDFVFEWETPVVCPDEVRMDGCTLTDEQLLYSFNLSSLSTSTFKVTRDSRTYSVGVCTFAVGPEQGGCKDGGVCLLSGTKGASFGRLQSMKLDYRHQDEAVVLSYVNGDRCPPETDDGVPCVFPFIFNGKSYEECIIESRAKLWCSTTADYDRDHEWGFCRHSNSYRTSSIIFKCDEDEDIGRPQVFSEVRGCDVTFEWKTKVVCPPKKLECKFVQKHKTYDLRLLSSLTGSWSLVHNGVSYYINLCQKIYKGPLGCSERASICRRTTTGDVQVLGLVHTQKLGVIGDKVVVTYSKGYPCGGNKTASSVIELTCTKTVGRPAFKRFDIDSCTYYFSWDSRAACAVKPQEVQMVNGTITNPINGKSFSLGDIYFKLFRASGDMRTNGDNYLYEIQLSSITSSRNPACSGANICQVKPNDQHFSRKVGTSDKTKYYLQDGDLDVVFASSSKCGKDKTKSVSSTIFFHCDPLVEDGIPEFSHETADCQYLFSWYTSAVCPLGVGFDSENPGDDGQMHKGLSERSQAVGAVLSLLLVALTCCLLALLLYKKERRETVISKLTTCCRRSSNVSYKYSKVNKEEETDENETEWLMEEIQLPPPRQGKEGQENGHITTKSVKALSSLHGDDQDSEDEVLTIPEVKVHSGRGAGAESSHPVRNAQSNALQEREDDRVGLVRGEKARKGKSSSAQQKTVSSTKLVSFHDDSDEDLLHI
Protocol: To evaluate the ability of the rhGAA in Myozyme® and Lumizyme®, the only currently approved treatments for Pompe disease, these rhGAA preparations were injected onto a CIMPR column (which binds rhGAA having M6P groups) and subsequently eluted with a free […] gradient. Fractions were collected in 96-well plate and GAA activity assayed by 4MU—α-glucose substrate. The relative amounts of bound and unbound rhGAA were determined based on GAA activity and reported as the fraction of total enzyme.

[4] = Population PK model of duvoglustat in plasma and tissue; format: in vivo, human; details: typical value
Protocol: Concentration-time profiles of miglustat (200 mg) in Pompe disease patients are compared to those obtained following administration of duvoglustat in normal healthy volunteers (dose range: 50, 100, 250, 600, and 1000 mg). Because concentration-time profiles of miglustat in patients with Pompe disease are similar to those observed following dosing of duvoglustat in healthy subjects over 24 h, PK data collected for duvoglustat in peripheral tissues were used as a surrogate to model exposure to miglustat. A two-compartment model with linear elimination is used to characterize the concentration-time profiles of duvoglustat in tissues.

[5] = Specific activity of ATB200 batches; format: biochemical
Protocol: Two batches of ATB200 with different sialic acid content were evaluated for pharmacokinetics and efficacy in Gaa KO mice.

[6] = Plasma GAA activity half-life of ATB200 batches after single IV bolus; format: in vivo, mouse; details: GAA activity in plasma, Gaa KO mice
Gaa KO mice [7] = assay: Glycogen reduction by ATB200 batches vs Lumizyme; format: in vivo, mouse; details: 2 IV bolus injections every other week, FIGS. 37A-37D
Protocol: In a related study, IV bolus tail vein injections of ATB200 (Batches A and B) and Lumizyme® were given to Gaa KO mice every other week for a total of 2 injections. Glycogen levels in tissues were measured 14 days after last administration.

[199-arginine,223-histidine]prepro-α-glucosidase (human) [alglucosidase alfa]
increase in acid α-glucosidase activity exposure (AUC), co-administration vs alglucosidase alfa alone [1]: 6.8 fold
apparent plasma half-life t1/2 [2]: ~60 min
autophagy (LC3 II) and lysosomal proliferation (LAMP1) (Gaa KO mice [3]; FIGS. 29-30): negligible effects towards reducing autophagy
lysosomal glycogen in skeletal muscles (Gaa KO mice [3]; FIGS. 32A-32D): modestly reduced accumulated lysosomal glycogen in skeletal muscles

Myozyme®: conventional rhGAA product (alglucosidase alfa), Genzyme
rhGAA activity eluted prior to addition of M6P (did not bind to the CIMPR) (CIMPR): 73%
rhGAA eluted with M6P / containing M6P (CIMPR binding) (CIMPR): 27%

OC[C@H]1NC[C@H](O)[C@@H](O)[C@@H]1O [duvoglustat, (2R,3R,4R,5S)-2-(hydroxymethyl)piperidine-3,4,5-triol]
clearance ([4]; human, plasma and tissue, read-out: Central compartment clearance (CL2) (converted)): 3.42 mL/min
clearance ([4]; human, plasma and tissue, read-out: Systemic clearance (CL) (converted)): 157 mL/min
Vd ([4]; human, plasma and tissue, read-out: Volume of distribution (V)): 44.5 L
Apparent intercompartment clearance (CLQ) [4]: 40.6 L/h
Elimination rate constant (Keo) [4]: 0.378
Intercompartment volume of distribution (VQ) [4]: 61.8 L
Intercompartment volume of distribution within central compartment (VQ2) [4]: 3390 L
Lag time [4]: 0.176 h
Peripheral compartment clearance (CL3) [4]: 88.0 L/h
Peripheral volume of distribution (V2) [4]: 8.68 L
Rate constant of absorption (Ka) [4]: 1.10 h⁻¹

Batch B: batch of ATB200 with sialic acid 5.4 mol/mol protein and M6P content 2.9 mol/mol protein
Specific activity [5]: 120929 (nmol nmol 4 mu/mg protein/hr
Half-life, Mean ± SEM [6]: 36 ± 1.8 min
glycogen reduction vs Lumizyme® (Gaa KO mice [7]): superior to Lumizyme® in reducing glycogen
glycogen reduction, Batch B vs Batch A (Gaa KO mice [7]; similar doses): generally more effective in reducing glycogen than Batch A

Batch A: batch of ATB200 with sialic acid 4.0 mol/mol protein and M6P content 3.3 mol/mol protein
Specific activity [5]: 115831 (nmol nmol 4 mu/mg protein/hr
Half-life, Mean ± SEM [6]: 30 ± 1.2 min
glycogen reduction vs Lumizyme® (Gaa KO mice [7]): superior to Lumizyme® in reducing glycogen

Reference: patent US20250381254A1, “Augmented Acid Alpha-Glucosidase For The Treatment Of Pompe Disease” (Amicus Therapeutics, Inc., priority 2015, published 2025)
